Results as given in US6194387A, “6-O-aklyl erythromycin B oxime” (Abbott Laboratories, priority 1999, dated 2001).
In brackets after ≈: the same amount, converted by molar mass. Like-named read-outs stand apart in the source and are kept apart here.

Experiments:
[1] = test system: STAP[…]; test: in vitro antibacterial activity, agar dilution MIC; assay type: cell-based, Staphylococcus agalactiae; details: Staphylococcus, read-out: SMIC
Method: (§1) 6-O-Methyl-9-oxime erythromycin B prepared in accordance with Examples 1 and 2 was assayed in vitro for anitbacterial activity as follows: Twelve petri dishes containing successive aqueous dilutions of the test compound mixed with 10 mL of sterilized Brain Heart Infusion (BHI) agar (Difco 0418-01-5) were prepared. Each plate was inoculated with 1:100 (or 1:10 for slow-growing strains, such as Micrococcus and Streptococcus) dilutions of up to 32 different micoorganisims, using a Steers replicatore block. The inoculated plates were incubated at 35-37° C. for 20 to 24 hours. In addition, a control plate, using BHI agar containing no test compound, was prepared and incubated at the beginning and end of each test.
(§2) An additional plate containing a compound having known susceptibility patterns for the organisms being tested and belonging to the same antibiotic class as the test compound was also prepared and incubated as further control, as well as to provide test-to-test comparability. Erythromycin A was used for this purpose.
(§3) After incubation, each disk was read. The minimum inhibitory concentration (MIC) was defined as the lowest concentration of drug yielding no growth, a slight haze, or sparsely isolated colonies on the inoculum spot as compared to the growth control.

[2] = test system: ACINETOBACTER CALCOACETICUS; test: in vitro antibacterial activity, agar dilution MIC; assay type: cell-based; details: read-out: SMIC
Method: as §1, §2, §3

[3] = test system: EN[…]; test: in vitro antibacterial activity, agar dilution MIC; assay type: cell-based; details: Enterococcus faecium, ATCC8043, read-out: SMIC
Method: as §1, §2, §3

[4] = test system: HAEMOPHILUS INFLUENZAE; test: in vitro antibacterial activity, agar dilution MIC; assay type: cell-based
Method: as §1, §2, §3

[5] = test system: KLEBSIELLA PNEUMONIAE; test: in vitro antibacterial activity, agar dilution MIC; assay type: cell-based; details: ATCC8045, read-out: SMIC
Method: as §1, §2, §3

[6] = test system: MYCOBACTERIIUM SMEGMATIS; test: in vitro antibacterial activity, agar dilution MIC; assay type: cell-based; details: read-out: SMIC
Method: as §1, §2, §3

[7] = test system: M[…]; test: in vitro antibacterial activity, agar dilution MIC; assay type: cell-based; details: Micrococcus luteus, ATCC4698, read-out: SMIC
Method: as §1, §2, §3

[8] = test system: NOCARDIA ASTEROIDES; test: in vitro antibacterial activity, agar dilution MIC; assay type: cell-based; details: ATCC9970, Table 2, ATCC 9970, read-out: SMIC
Method: as §1, §2, §3

[9] = test system: PROVIDENCIA STUART II; test: in vitro antibacterial activity, agar dilution MIC; assay type: cell-based; details: read-out: SMIC
Method: as §1, §2, §3

[10] = test system: PSEUDOMONAS AERUGINOSA; test: in vitro antibacterial activity, agar dilution MIC; assay type: cell-based
Method: as §1, §2, §3

[11] = test system: PSEUDOMONAS CEPACIA; test: in vitro antibacterial activity, agar dilution MIC; assay type: cell-based; details: Burkholderia cepacia; Table 2; 2961; read-out: SMIC
Method: as §1, §2, §3

[12] = test system: STAPHYLOCOCCUS AUREUS; test: in vitro antibacterial activity, agar dilution MIC; assay type: cell-based
Method: as §1, §2, §3

[13] = test system: STAPHYLOCOCCUS BOVIS; test: in vitro antibacterial activity, agar dilution MIC; assay type: cell-based; details: read-out: SMIC
Method: as §1, §2, §3

[14] = test system: STAPHYLOCOCCUS EPIDERMIDIS; test: in vitro antibacterial activity, agar dilution MIC; assay type: cell-based; details: read-out: SMIC
Method: as §1, §2, §3

[15] = test system: STAPHYLOCOCCUS PNEUMONIAE; test: in vitro antibacterial activity, agar dilution MIC; assay type: cell-based
Method: as §1, §2, §3

[16] = test system: STAPHYLOCOCCUS PYOGENES; test: in vitro antibacterial activity, agar dilution MIC; assay type: cell-based
Method: as §1, §2, §3

[17] = test system: M[…]; test: in vitro antibacterial activity, agar dilution MIC; assay type: cell-based, Micrococcus pyogenes; details: Staphylococcus aureus, ATCC9341, read-out: SMIC
Method: as §1, §2, §3

[18] = test system: EN[…]; test: in vitro antibacterial activity, agar dilution MIC; assay type: cell-based, Enterobacter aerogenes; details: Klebsiella aerogenes, ATCC13048, read-out: SMIC
Method: as §1, §2, §3

[19] = test system: CANDIDA ALBICANS; test: in vitro antimicrobial activity, agar dilution MIC; assay type: cell-based; details: read-out: SMIC
Method: as §1, §2, §3

CC[C@H]1OC(=O)[C@H](C)[C@@H](O[C@H]2C[C@@](C)(OC)[C@@H](O)[C@H](C)O2)[C@H](C)[C@@H](O[C@@H]2O[C@H](C)C[C@H](N(C)C)[C@H]2O)[C@](C)(O)C[C@@H](C)C(=O)[C@H](C)[C@@H](O)[C@]1(C)O [Erythromycin A, reference compound]
MIC [1]: 0.01 µg/mL (≈ 0.0136 µM) | MIC [2]: 12.5 µg/mL (≈ 17 µM) | MIC [3]: 0.05 µg/mL (≈ 0.0681 µM) | MIC ([4]; ATCC10211, read-out: SIMC, Table 3, ATCC 10211): 8 µg/mL (≈ 10.9 µM) | MIC ([4]; ATCC19418, read-out: SIMC, Table 3, ATCC 19418): 8 µg/mL (≈ 10.9 µM) | MIC ([4]; ATCC43095, read-out: SIMC, Table 3, ATCC 43095): 1 µg/mL (≈ 1.36 µM) | MIC ([4]; read-out: SIMC, Table 3, CMX 503B): 8 µg/mL (≈ 10.9 µM) | MIC ([4]; read-out: SIMC, Table 3, CMX 504): 8 µg/mL (≈ 10.9 µM) | MIC ([4]; read-out: SIMC, Table 3, CMX 519A): 4 µg/mL (≈ 5.45 µM) | MIC ([4]; read-out: SIMC, Table 3, CMX 566A): 4 µg/mL (≈ 5.45 µM) | MIC ([4]; read-out: SIMC, Table 3, CMX 588A): 4 µg/mL (≈ 5.45 µM) | MIC ([4]; read-out: SIMC, Table 3, CMX 632A): 4 µg/mL (≈ 5.45 µM) | MIC ([4]; read-out: SIMC, Table 3, CMX 747C): 8 µg/mL (≈ 10.9 µM) | MIC ([4]; read-out: SIMC, Table 3, CMX 751): 8 µg/mL (≈ 10.9 µM) | MIC ([4]; read-out: SIMC, Table 3, GYR 1177): 0.25 µg/mL (≈ 0.341 µM) | MIC ([4]; read-out: SIMC, Table 3, GYR 1435): 2 µg/mL (≈ 2.73 µM) | MIC ([4]; read-out: SIMC, Table 3, SOL AMP R): 4 µg/mL (≈ 5.45 µM) | MIC ([4]; read-out: SIMC, Table 3, SPK AMP R): 4 µg/mL (≈ 5.45 µM) | MIC [5]: > 100 µg/mL | MIC [6]: 12.5 µg/mL (≈ 17 µM) | MIC [7]: 0.39 µg/mL (≈ 0.531 µM) | MIC [8]: 0.005 µg/mL (≈ 0.00681 µM) | MIC [9]: > 100 µg/mL | MIC ([10]; read-out: SMIC, Table 2, 5007): > 100 µg/mL | MIC ([10]; read-out: SMIC, Table 2, BMH10): 100 µg/mL (≈ 136 µM) | MIC ([10]; read-out: SMIC, Table 2, DPHD-2862): > 100 µg/mL | MIC ([10]; read-out: SMIC, Table 2, DPHD-5263): > 100 µg/mL | MIC ([10]; read-out: SMIC, Table 2, K799/61): 0.78 µg/mL (≈ 1.06 µM) | MIC ([10]; read-out: SMIC, Table 2, K799/wt): > 100 µg/mL | MIC [11]: > 100 µg/mL | MIC ([12]; ATCC6538P, read-out: SMIC, Table 2, ATCC 6538P): 0.39 µg/mL (≈ 0.531 µM) | MIC ([12]; read-out: SMIC, Table 2, 1775): > 100 µg/mL | MIC ([12]; read-out: SMIC, Table 2, A5177): 12.5 µg/mL (≈ 17 µM) | MIC ([12]; read-out: SMIC, Table 2, A-5278): > 100 µg/mL | MIC ([12]; read-out: SMIC, Table 2, CMX 553): 0.39 µg/mL (≈ 0.531 µM) | MIC ([12]; read-out: SMIC, Table 2, CMX 642A): 0.39 µg/mL (≈ 0.531 µM) | MIC ([12]; read-out: SMIC, Table 2, NCTC10649M): 0.39 µg/mL (≈ 0.531 µM) | MIC [13]: 0.01 µg/mL (≈ 0.0136 µM) | MIC [14]: 0.2 µg/mL (≈ 0.273 µM) | MIC ([15]; read-out: SIMC, Table 3, 5649): 8 µg/mL (≈ 10.9 µM) | MIC ([15]; read-out: SIMC, Table 3, 5654): 16 µg/mL (≈ 21.8 µM) | MIC ([15]; read-out: SIMC, Table 3, 5728): 128 µg/mL (≈ 174 µM) | MIC ([15]; read-out: SIMC, Table 3, 5737): 128 µg/mL (≈ 174 µM) | MIC ([15]; read-out: SIMC, Table 3, 5979): 128 µg/mL (≈ 174 µM) | MIC ([15]; read-out: SIMC, Table 3, GYR 1171): 0.03 µg/mL (≈ 0.0409 µM) | MIC ([16]; read-out: SIMC, Table 3, 930): 128 µg/mL (≈ 174 µM) | MIC ([16]; read-out: SIMC, Table 3, EES61): 0.03 µg/mL (≈ 0.0409 µM) | MIC ([16]; read-out: SIMC, Table 3, PIU 2548): 16 µg/mL (≈ 21.8 µM) | MIC ([16]; read-out: SMIC, Table 2, 930): > 100 µg/mL | MIC ([16]; read-out: SMIC, Table 2, EES61): 0.01 µg/mL (≈ 0.0136 µM) | MIC ([16]; read-out: SMIC, Table 2, PIU 2548): 6.2 µg/mL (≈ 8.45 µM) | MIC [17]: 0.01 µg/mL (≈ 0.0136 µM) | MIC [18]: > 100 µg/mL | MIC [19]: > 100 µg/mL
